# Source: paper PMC3068151 (PLoS ONE, 2011)
# Legend:
# PC3 cells = assay: PC3 cell binding / adhesion assay (MTT readout); type: cell-based, human
# Protocol: 96 well ELISA high binding plates were incubated overnight at 4°C with ephrinA1-Fc 1 µg/cm^2, 100 µl per well. The plates were washed three times with PBS and blocked for 1 hour with BSA 1%. Cells were treated with proper concentration of substance or DMSO 0.5% for 30 minutes in vials on a shaker. After that, plates were washed with PBS and incubated with 100 µl 5×10^5 cells/ml for 1 hour at 37°C. Finally, plates were washed with PBS and adhering cells were quantified using MTT colorimetric assay.
# 96-wells plates for cell culture were untretaed (A) or coated with 1 µg/cm^2 ephrinA1-Fc (B) overnight. PC3 cells were treated with the indicated compounds for 30 minutes in a tube and let to adhere for 60 minutes on the wells. Cell adhesion is reported normalizing adhesion of Fc to 100%. […] Data are the means of at least three independent experiment ± st. err. One-way ANOVA followed by Dunnet's post test was performed comparing Fc to all other column. No significant differences were detected for data in graph A. *, p<0.05, **,p<0.01.
# EphA2 = EphA2 (Homo sapiens, UniProt P29317); settings: up to 100 µM
# Protocol: Recombinant human EphA2 enzyme activity was evaluated with LANCE® method using ATP and Ulight-TK peptide as substrate (http://las.perkinelmer.com/).
# IGFR1β = biological target: T1, IGFR1β (Homo sapiens, UniProt P08069); assay: IGFR1β activity, alpha Technology; type: cell-based; settings: 100 µM, 5 nM IGF1
# T1 construct: in HepG2 or A431 cells, respectively; endogenous in cells; host or cells: A431 according to b24; HepG2 according to the order in the legend b55
# Protocol: Cells were stimulated with 5 nM IGF1 or 100 nM insulin for 10 minutes, lysed and a fluorescence acceptor (alphaLISA protein A beads coated with anti-phospho-IRKβ or -IGFR1β) added for 2 hours. A fluorescence donor (streptavidin coupled-beads) coated with an antibody towards IRKβ or IGFR1β was incubated for 2 hours and the signal was measured at λex = 680 nm and λem = 500 nm and 600 nm using a microplate reader (EnVision, Perkin Elmer, Waltham, MA, USA).
# These assays were performed at CEREP (Celle L'Evescault, France).
# A, B) EGFR phosphorylation was induced by 30 ng/ml and 10 ng/ml EGF on PC3 (A) and HT29 (B) cells, respectively. […] Data are the means of two experiments ± st. err.
# EphA2-ephrinA1 binding = biological target: T2, EphA2-ephrinA1 binding (Mus musculus, UniProt Q03145); assay: ELISA EphA2-ephrinA1 binding (displacement and saturation); settings: 200 µM for 1 hour, some wells washed before adding 50 ng/ml ephrinA1-Fc
# T2 construct: we immobilized EphA2-Fc- ectodomain on proper ELISA plates; purchased R&D systems 639-A2 (EphA2-Fc); BT602 (biotinylated ephrinA1-Fc)
# EphB4 = biological target: T3, EphB4 (Homo sapiens, UniProt P54760); assay: Phosphorylated-EphB4 sandwich ELISA in T47D cell lysates; type: cell-based; settings: T47D cells, 3 µg/ml ephrinB2-Fc preclustered with 0.3 µg/ml IgG Fc fragment; read-out: IC50 EphB4 phosphorylation
# T3 construct: EphB4 phosphorylation on T47D breast cancer cells; endogenous in cells; host or cells: T47D
# T3 sequence (P54760 16-987): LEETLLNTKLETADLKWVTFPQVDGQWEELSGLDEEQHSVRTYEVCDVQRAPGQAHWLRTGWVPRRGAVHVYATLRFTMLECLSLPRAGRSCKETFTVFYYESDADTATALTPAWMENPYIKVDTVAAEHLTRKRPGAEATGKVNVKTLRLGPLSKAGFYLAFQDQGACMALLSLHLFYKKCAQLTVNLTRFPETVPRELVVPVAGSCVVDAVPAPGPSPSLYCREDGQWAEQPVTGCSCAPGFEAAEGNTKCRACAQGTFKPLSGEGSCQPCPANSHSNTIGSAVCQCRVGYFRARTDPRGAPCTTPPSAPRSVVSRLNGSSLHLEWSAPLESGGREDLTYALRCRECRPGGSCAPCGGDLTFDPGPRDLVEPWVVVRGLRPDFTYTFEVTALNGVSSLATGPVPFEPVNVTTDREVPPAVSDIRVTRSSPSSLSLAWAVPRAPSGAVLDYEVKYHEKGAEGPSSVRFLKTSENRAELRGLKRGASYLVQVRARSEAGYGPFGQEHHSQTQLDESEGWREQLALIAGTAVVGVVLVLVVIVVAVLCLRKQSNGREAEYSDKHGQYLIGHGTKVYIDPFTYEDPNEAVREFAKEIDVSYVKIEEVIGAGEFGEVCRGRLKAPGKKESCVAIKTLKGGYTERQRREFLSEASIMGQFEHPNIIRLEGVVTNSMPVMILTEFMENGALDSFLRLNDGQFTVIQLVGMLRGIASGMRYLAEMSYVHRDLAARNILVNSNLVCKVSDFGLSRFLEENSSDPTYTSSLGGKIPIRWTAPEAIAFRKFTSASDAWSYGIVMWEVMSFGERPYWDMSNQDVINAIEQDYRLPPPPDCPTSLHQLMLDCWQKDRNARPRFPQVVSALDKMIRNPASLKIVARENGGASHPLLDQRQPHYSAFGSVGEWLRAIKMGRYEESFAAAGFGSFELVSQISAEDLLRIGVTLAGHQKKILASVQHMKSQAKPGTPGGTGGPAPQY
# Protocol: Cells were seeded in 12-well plates at concentration of 10^5cells/ml in complete medium until they reached ∼40% confluence and serum starved overnight. The day after cells were treated with compounds under study, vehicle or standard drug, stimulated with the proper agonist, rinsed with sterile PBS and solubilized in lysis buffer. The lysates were resuspended and rocked at 4°C for 30 minutes and then centrifuged at 14000 xg for 5 minutes. The protein content of supernatant was measured with BCA protein assay kit (Thermo scientific), standardized to 200 µg/ml and transferred into a clean test tube ready to be used.
# EphA2-, EphB4- and EGFR-phosphorylation were measured in cell lysates using DuoSet®IC Sandwich ELISA (RnD Systems, #DYC4056, #DYC4057 and #DYC1095, respectively) following manufacturer's protocol. […] The day after wells were washed and blocked for 1 hour at room temperature. After that, wells were washed and 100 µl/well of lysates were added at room temperature for 2 hours; wells were washed and incubated with Detection Antibody at room temperature for 2 hours.
# EphB4 phosphorylation was stimulated with 3 µg/ml ephrinB2-Fc, preclustered with 0.3 µg/ml IgG Fc fragment on T47D cells (G, H, I). […] Phospho-EphA2/B4 levels are relative to ephrinA1/B2-Fc+DMSO. Data are the means of at least three independent experiment ± st. err. […]
# EphB kinases = assay: ELISA displacement of biotinylated ephrinB1-Fc from immobilized EphB-Fc ectodomains; type: binding; settings: biotinylated ephrinB1-Fc at KD concentration
# T2 sequence (Q03145 26-538 limits assumed): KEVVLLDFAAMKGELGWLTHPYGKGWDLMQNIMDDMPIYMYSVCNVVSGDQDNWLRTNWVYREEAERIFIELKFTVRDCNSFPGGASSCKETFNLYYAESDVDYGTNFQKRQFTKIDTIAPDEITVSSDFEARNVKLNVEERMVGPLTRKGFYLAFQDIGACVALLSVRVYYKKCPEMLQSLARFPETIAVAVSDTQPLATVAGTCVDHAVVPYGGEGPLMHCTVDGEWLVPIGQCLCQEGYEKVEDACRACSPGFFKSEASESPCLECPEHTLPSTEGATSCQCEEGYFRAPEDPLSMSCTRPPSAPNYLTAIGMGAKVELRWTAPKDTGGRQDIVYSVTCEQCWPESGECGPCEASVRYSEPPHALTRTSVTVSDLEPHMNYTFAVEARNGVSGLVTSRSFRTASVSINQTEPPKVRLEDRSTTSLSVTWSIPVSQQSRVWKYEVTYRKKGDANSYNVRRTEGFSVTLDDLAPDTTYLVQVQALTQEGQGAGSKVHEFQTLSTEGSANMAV
# T1 sequence (P08069 741-1367 limits assumed): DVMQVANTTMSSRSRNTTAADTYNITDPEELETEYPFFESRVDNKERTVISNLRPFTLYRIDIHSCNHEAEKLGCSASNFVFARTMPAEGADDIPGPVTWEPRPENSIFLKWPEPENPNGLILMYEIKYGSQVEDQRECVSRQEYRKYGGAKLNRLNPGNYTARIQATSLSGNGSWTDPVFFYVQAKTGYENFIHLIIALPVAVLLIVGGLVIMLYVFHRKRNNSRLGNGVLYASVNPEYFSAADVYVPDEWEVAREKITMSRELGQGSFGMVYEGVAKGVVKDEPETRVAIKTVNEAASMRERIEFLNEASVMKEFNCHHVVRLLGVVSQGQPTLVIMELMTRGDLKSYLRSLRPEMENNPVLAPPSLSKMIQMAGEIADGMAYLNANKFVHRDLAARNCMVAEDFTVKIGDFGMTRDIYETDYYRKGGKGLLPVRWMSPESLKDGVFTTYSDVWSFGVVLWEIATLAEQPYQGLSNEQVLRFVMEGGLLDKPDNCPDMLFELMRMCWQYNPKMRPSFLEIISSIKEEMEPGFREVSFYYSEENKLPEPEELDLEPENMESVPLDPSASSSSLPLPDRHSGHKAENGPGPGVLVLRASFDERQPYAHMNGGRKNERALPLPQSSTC
# T1 sequence (P08069 31-736 partner limits assumed): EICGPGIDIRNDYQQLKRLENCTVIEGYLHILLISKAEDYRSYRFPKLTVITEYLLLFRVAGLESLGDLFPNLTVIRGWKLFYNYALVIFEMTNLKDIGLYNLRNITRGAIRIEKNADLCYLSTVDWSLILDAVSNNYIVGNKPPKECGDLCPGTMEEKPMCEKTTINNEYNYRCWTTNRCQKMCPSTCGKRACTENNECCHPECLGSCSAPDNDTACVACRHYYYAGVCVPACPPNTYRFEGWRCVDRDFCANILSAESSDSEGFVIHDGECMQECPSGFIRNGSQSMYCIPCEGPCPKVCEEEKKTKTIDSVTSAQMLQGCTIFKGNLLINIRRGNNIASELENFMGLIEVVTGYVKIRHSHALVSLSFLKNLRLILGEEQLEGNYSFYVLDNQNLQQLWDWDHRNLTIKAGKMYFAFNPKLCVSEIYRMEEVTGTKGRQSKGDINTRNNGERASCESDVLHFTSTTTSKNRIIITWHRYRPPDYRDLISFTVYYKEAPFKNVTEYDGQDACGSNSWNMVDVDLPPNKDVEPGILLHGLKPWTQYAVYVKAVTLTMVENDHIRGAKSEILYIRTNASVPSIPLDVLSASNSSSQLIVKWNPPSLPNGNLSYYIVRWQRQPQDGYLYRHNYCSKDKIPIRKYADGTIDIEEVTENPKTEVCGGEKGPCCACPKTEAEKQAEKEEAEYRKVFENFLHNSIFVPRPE
# EphA2, sequence (P29317 24-976): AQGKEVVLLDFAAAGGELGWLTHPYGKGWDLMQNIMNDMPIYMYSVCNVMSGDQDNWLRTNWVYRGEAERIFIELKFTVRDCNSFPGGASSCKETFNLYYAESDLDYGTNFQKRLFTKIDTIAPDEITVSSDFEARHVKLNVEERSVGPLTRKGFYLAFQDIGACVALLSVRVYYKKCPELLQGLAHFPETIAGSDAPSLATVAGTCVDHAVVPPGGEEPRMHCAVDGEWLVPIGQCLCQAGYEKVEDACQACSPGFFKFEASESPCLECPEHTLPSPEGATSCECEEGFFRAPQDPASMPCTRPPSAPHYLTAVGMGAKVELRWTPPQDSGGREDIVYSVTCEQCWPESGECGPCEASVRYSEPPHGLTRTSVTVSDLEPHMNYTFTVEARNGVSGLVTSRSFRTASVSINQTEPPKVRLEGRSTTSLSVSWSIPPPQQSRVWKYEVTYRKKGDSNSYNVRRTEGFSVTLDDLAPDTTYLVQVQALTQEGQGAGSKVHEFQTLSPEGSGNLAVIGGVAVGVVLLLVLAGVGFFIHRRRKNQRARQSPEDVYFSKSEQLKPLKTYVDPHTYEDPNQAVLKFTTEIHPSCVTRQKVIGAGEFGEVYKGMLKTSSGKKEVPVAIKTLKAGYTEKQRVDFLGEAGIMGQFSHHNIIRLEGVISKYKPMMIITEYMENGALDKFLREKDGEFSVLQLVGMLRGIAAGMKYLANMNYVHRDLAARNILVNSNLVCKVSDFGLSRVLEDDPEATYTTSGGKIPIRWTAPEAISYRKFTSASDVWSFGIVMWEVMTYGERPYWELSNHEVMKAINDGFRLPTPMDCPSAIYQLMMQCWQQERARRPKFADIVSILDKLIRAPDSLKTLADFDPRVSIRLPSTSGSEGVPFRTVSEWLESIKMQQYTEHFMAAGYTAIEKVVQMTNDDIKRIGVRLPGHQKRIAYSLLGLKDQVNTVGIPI
structure (smiles),measurement,setting,value
"C[C@H](CCC(=O)O)[C@H]1CC[C@H]2[C@@H]3CC[C@@H]4C[C@H](O)CC[C@]4(C)[C@H]3CC[C@]12C [LCA, lithocholic acid]",PC3 adhesion to ephrinA1-Fc,"PC3 cells; ephrinA1-Fc coated plates, increasing concentrations",dose-dependently inhibited
same,aspecific PC3 cell adhesion,PC3 cells; uncoated standard cell culture plates,neither ephrinA1-Fc nor LCA inhibited
same,effect on EphA2 enzymatic activity,EphA2,did not modify enzymatic activity
same,effect on IGFR1β activity as agonist or antagonist,IGFR1β,failed to affect activity
same,reversibility of binding (displacement with or without washing),EphA2-ephrinA1 binding,The displacement was detected only where the washing was not performed
same,IC50,EphB4,141 µM
same,displacement of ephrin-B1-Fc ectodomain from immobilized EphB-Fc ectodomains,EphB kinases,dose-dependently displaced
